Where a name gives a salt, the structure may show the parent alone. Read-outs that look alike come from different tables or passages of the source.
Columns and labels:
L-type calcium channel = biological target: T1, L-type calcium channel (Rattus norvegicus, UniProt P22002); test: Competition binding of [3H]nitrendipine to membrane fragments of rat cardiac muscle; conditions: [3H]nitrendipine, rat cardiac muscle membranes
T1 construct: membrane fragments of rat cardiac muscle; from tissue; host or cells: rat cardiac muscle membranes

α2B receptor = biological target: T2, α2B receptor (Homo sapiens, UniProt P18089); test: Competition binding, [3H]rauwolscine, human α2B receptor; conditions: [3H]rauwolscine
T2 construct: host or cells: LM(tk-) cells, line L-NGC-α2B
T2 sequence (P18089 1-450): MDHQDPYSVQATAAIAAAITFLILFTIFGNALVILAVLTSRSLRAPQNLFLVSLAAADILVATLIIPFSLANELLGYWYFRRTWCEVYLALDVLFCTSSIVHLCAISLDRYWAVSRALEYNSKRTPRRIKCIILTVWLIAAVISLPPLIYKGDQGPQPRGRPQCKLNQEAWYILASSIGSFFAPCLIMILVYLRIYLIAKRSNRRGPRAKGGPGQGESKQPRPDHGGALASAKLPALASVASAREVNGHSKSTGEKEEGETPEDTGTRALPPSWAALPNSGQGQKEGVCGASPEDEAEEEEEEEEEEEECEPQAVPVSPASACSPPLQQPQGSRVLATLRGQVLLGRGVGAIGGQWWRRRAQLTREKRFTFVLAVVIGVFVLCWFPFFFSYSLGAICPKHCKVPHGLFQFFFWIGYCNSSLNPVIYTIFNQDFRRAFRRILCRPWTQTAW
From the text: (§1) The protocols for these experiments are given below.
(§2) α2 Human Adrenergic Receptors:
(§3) To determine the potency of […], antagonists at the α2 receptors, LM(tk−) cell lines stably transfected with the genes encoding the α2A, α2B, and α2C receptors were used. The cell line expressing the α2A receptor is designated L-α2A, and was deposited on Nov. […] The cell line expressing the α2B receptor is designated L-NGC-α2B, and was deposited on Oct. […] The cell line expressing the α2C receptor is designated L-α2C, and was deposited on Nov. […] Cell lysates were prepared as described above (see Radioligand Binding Assays), and suspended in 25 mM glycylglycine buffer (pH 7.6 at room temperature). Equilibrium competition binding assay were performed using [3H]rauwolscine (0.5 nM), and nonspecific binding was determined by incubation with 10 μM phentolamine. The bound radioligand was separated by filtration through GF/B filters using a cell harvester.

α2C receptor = biological target: T3, α2C receptor (Homo sapiens, UniProt P18825); test: Competition binding, [3H]rauwolscine, human α2C receptor; conditions: [3H]rauwolscine
T3 construct: host or cells: LM(tk-) cells, line L-α2C
T3 sequence (P18825 1-462): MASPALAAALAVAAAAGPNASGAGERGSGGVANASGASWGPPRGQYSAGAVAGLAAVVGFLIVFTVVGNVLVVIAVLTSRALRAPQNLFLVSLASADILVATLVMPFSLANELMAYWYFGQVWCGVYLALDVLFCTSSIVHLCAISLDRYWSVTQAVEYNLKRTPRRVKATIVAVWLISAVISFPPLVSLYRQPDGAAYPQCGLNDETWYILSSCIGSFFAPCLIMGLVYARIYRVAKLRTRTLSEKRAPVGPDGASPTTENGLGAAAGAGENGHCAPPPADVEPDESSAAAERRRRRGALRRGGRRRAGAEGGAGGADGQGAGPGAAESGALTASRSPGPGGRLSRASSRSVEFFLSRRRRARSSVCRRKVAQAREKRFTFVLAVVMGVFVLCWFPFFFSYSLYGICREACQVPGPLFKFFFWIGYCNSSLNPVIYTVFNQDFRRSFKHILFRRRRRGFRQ
From the text: as §1, §2, §3

α2A receptor = biological target: T4, α2A receptor (Homo sapiens, UniProt P08913); test: Competition binding, [3H]rauwolscine, human α2A receptor; conditions: [3H]rauwolscine
T4 construct: host or cells: LM(tk-) cells, line L-α2A
T4 sequence (P08913 1-465): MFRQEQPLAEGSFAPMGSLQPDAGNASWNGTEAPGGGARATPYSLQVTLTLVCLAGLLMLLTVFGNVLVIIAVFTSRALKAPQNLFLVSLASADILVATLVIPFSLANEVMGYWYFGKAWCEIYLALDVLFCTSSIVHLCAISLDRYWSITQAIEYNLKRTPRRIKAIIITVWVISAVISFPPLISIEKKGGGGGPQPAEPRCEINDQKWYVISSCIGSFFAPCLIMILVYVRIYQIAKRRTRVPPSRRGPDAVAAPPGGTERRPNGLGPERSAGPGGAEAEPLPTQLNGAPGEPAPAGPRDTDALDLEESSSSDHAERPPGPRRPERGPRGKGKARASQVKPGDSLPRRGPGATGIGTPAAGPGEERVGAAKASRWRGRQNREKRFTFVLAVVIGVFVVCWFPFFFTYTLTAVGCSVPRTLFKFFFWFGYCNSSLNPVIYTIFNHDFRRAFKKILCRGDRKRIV
From the text: as §1, §2, §3

[1] = biological target: T5, α1A Human Adrenergic Receptor (Homo sapiens, UniProt P25100); test: Radioligand binding, [3H]prazosin, cloned human α1A adrenergic receptor
T5 construct: The entire coding region of α1A (1719 bp); expressed in transfected cells
T5 sequence (P25100 1-572): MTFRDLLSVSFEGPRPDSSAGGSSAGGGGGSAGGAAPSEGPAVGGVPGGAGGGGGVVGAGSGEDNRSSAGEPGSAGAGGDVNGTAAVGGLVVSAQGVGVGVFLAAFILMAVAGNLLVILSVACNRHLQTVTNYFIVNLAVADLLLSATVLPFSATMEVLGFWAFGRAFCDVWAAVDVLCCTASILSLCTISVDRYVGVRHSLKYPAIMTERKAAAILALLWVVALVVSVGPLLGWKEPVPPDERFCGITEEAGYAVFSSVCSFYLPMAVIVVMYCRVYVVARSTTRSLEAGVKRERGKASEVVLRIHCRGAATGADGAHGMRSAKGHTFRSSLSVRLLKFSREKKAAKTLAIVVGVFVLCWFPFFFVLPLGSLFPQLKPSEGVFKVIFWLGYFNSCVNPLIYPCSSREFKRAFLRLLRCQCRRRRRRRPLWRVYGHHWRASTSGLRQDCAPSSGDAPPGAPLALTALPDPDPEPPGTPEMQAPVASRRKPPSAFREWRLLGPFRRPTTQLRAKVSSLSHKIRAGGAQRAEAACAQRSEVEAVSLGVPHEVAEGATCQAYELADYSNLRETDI
How it was run: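 Competition binding used membrane preparations of transfected LM(tk−) cells and the α1 antagonist [3H]prazosin at 0.5 nM, incubated 20 min at 37° C in Tris-HCl buffer, pH 7.5.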

human prostatic tissue = test: In vitro human prostate model: block of phenylephrine-induced contraction of human prostatic tissue; assay type: cell-based; conditions: In Vitro Human Prostate Model; phenylephrine-induced contraction
From the text: The protocol for these experiments is given below.
Functional Properties of α1 Antagonists in the Human Prostate
The efficacy of α1 adrenergic antagonists for the treatment of benign prostatic hyperplasia (BPH) is related to their ability to elicit relaxation of prostate smooth muscle. An index of this efficacy can be obtained by determining the potency of al antagonists to antagonize the contraction of human prostatic tissue induced by an α1 agonist “in vitro”. Furthermore, by comparing the potency of subtype selective α1 antagonists in binding assays using human α1 receptors with their potency to inhibit agonist-induced smooth muscle contraction, it is possible to determine which of the α1 adrenergic receptor subtypes is involved in the contraction of prostate smooth muscle.
Prostatic adenomas were obtained at the time of surgery from patients with symptomatic BPH. […] The baths were maintained at 37° C. and continuously oxygenated with 5% CO2 and 95% O2. Isometric tension was measured with a Grass Instrument FT03 force transducer interfaced with a computer. Tissue strips were contracted with varying concentrations of phenylephrine after incubating for 20 minutes in the absence and presence of at least three different concentrations of antagonist. Dose-response curves for phenylephrine were constructed, and the antagonist potency (pA2) was estimated by the dose-ratio method. The concentration of some antagonists in the tissue bath was assessed by measuring the displacement of [3H]prazosin by aliquots of the bath medium, using membrane preparations of the cloned human α1C receptor. This control was necessary to account for losses of antagonist due to adsorption to the tissue bath and/or metabolism during the time the antagonists were equilibrated with the prostate tissue.

canine prostate = test: In vivo dog prostate model: inhibition of phenylephrine-induced increase in urethral pressure in anesthetized dogs; conditions: In Vivo Dog Prostate Model; phenylephrine-induced contraction, urethral pressure
Protocol: Protocol for In Vivo Evaluation of Compounds in Canine Prostate
Adult male mongrel dogs more than one year of age were chosen for the model. After induction of general anesthesia using sodium pentobarbital (25 mg/Kg i.v.), the animals were intubated and allowed to breathe spontaneously. An arterial catheter was inserted via the femoral artery to monitor blood pressure and i.v. line was inserted into the leg for fluid and drug administration. A constant saline infusion was maintained at 40 to 50 mL/h. Next, a seven cm lower abdominal incision was made one cm lateral to the penis.
The bladder, prostate and a short segment of urethra were identified and isolated, without damage to the nerves or blood vessels. A cystotomy incision was made through which the pressure catheter was inserted and positioned in the prostatic urethra. The cystotomy was not closed, but the wound edges were sutured to stop bleeding. The tip of the catheter was positioned just distal to the prostate and secured in place with an O-silk tie around the urethra. A second holding suture at the bladder neck secured the catheter in place.
Fluid, either water or saline, was pumped by a Harvard infusion pump at 0.1 mL/min through a Gould pressure transducer into the catheter. The fluid exists at a port in the catheter which is in the prostatic urethra. Occlusion of the port, by contraction of the prostate, blocks the flow and a pressure wave is created. This pressure is transmitted back through the catheter to the transducer which is attached to a Gould recorder. Squeezing the prostate gland caused an increase in urethral pressure which verified the correct position in the urethra.
The compounds were tested as follows: A dose response curve was first generated for phenylephrine alone, in doses ranging from one μg/Kg to 50 μg/Kg. The absolute rise in urethral pressure was recorded for each dose and the next dose given when the urethral pressure returned to baseline. Phenylephrine dose response curves were generated in all animals tested. Increasing doses of compounds were then given, and the phenylephrine dose response curve repeated in the prepense of each dose of the compound. No animal received more than one compound; four animals were used to test each compound. To test for tachyphylaxis, four separate dogs were challenged with repeated phenylephrine doses for six hrs, the usual length of each experiment. From the dose-effect data, the inhibition constant (Ki) and the median-effect dose (ED50) were calculated. Both the Ki and ED50 values given are calculated by using microcomputer software and an IBM-PC.

[2] = mean, read-out: PKi Ca (converted)
[3] = human receptor, LM(tk-) cell lysates, mean, read-out: PKi alpha-2 2b (converted)
[4] = human receptor, LM(tk-) cell lysates, mean, read-out: PKi alpha-2 2c (converted)
[5] = human receptor, LM(tk-) cell lysates, mean, read-out: PKi alpha-2 2a (converted)
[6] = LM(tk-) cell line L-NGC-α2B, SEM and n in lines below
[7] = SEM and n in lines below, read-out: pKi Ca (converted)

T1 sequence (P22002 whole entry, other chains not shown, the tested form may be a part): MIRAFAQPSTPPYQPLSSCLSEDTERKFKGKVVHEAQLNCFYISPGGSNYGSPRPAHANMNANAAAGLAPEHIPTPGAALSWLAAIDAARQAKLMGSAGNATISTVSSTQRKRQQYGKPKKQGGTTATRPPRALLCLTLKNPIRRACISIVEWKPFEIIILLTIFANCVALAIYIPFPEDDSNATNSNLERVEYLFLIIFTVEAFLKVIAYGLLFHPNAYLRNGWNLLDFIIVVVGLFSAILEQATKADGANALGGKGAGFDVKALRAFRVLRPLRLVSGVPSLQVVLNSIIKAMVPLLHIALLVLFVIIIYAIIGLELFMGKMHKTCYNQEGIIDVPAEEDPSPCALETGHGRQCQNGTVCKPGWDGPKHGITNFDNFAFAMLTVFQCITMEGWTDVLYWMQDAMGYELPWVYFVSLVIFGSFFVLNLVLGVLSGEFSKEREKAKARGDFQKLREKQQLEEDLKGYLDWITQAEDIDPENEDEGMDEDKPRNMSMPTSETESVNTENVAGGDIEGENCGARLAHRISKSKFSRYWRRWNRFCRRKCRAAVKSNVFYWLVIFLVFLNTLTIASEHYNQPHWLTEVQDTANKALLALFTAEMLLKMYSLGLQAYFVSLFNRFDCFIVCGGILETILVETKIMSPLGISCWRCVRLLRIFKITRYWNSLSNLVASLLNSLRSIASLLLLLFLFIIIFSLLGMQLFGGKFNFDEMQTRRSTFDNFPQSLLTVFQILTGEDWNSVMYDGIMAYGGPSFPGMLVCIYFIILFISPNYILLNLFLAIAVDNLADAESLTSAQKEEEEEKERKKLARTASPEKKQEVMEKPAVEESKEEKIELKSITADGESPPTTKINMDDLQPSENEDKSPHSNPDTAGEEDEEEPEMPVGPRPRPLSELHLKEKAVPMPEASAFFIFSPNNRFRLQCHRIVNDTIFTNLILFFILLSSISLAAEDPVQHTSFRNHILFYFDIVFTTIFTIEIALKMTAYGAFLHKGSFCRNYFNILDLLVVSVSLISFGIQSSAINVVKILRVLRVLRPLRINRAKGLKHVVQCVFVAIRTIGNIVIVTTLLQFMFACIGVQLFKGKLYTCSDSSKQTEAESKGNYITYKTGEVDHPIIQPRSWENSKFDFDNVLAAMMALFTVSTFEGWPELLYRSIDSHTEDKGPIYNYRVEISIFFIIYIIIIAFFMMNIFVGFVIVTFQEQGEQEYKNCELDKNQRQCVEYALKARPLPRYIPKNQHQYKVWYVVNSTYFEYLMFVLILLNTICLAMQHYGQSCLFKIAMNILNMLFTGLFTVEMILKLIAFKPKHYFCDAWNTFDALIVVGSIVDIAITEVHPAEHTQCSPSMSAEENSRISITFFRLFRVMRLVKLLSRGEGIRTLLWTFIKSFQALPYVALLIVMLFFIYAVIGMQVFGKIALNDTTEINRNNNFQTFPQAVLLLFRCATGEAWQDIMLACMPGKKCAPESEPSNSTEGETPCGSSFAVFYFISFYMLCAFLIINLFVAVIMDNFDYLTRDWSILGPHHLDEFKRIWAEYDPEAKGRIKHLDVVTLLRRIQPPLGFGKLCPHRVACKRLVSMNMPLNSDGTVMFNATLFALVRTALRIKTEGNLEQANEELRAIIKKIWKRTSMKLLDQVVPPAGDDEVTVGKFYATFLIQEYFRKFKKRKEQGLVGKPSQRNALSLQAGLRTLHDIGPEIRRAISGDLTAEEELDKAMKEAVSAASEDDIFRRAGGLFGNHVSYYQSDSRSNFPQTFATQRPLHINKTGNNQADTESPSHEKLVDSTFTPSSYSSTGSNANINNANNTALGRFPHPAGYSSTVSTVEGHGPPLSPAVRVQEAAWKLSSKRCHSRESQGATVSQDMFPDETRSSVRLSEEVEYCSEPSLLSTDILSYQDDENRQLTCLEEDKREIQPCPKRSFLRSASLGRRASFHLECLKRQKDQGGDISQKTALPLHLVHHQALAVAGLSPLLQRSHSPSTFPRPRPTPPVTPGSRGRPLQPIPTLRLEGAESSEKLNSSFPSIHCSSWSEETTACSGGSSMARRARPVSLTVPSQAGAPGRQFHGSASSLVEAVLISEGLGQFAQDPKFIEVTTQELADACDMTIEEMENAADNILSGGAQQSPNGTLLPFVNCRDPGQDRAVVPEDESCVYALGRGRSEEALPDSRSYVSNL
T1 sequence (P54290 25-944 partner limits assumed, other chains not shown): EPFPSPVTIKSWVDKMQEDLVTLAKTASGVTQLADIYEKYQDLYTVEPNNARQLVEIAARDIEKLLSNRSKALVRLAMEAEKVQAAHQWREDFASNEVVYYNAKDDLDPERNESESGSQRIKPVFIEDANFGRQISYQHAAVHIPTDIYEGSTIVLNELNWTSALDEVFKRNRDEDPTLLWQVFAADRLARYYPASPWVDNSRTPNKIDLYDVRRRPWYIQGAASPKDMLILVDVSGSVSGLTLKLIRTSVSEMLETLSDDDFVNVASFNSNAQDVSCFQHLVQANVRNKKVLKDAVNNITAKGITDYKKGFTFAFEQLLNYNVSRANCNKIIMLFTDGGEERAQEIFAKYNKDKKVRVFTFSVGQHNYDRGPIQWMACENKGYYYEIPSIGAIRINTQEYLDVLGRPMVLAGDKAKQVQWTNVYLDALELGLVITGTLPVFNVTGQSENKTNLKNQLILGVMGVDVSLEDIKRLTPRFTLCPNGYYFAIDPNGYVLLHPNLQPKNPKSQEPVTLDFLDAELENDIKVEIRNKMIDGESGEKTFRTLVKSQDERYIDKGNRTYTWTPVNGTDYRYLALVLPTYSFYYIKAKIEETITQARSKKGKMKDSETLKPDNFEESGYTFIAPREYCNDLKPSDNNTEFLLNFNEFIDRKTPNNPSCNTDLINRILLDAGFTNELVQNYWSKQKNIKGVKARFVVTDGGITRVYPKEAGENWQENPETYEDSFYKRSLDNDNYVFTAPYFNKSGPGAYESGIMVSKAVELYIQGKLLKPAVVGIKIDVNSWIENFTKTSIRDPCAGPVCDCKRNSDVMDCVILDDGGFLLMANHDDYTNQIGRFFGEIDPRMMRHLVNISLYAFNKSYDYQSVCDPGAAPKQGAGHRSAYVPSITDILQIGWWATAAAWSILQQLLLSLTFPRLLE
T1 sequence (P54290 945-1091 partner limits assumed, other chains not shown): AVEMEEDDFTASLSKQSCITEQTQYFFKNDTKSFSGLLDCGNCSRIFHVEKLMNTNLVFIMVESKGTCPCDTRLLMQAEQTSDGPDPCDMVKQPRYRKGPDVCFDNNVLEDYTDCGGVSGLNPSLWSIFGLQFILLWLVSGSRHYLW

| SMILES | melting point [°C] | Ki (L-type calcium channel; [2]) [µM] | Ki (α2C receptor; [4]) [µM] | Ki (α2A receptor; [5]) [µM] | pKi alpha-2 2b (α2B receptor; [6]) | Ki (L-type calcium channel; [7]) [µM] | also measured |
| --- | --- | --- | --- | --- | --- | --- | --- |
| COC(=O)C1(c2ccccc2)CCN(CCCNC(=O)C2=C(C)NC(C)=C(C(N)=O)C2c2ccc([N+](=O)[O-])cc2)CC1 (centres unmarked) [Example 198, 5-Carboxamido-1,4-dihydro-2,6-dimethyl-3-{N-[3-(4-methoxycarbonyl-4-phenylpiperidin-1-yl)propyl]}carboxamido-4-(4-nitrophenyl)pyridine] | 120 to 121 | 178 | 2.45 | 1.12 | – | – | Ki (α2B receptor; [3]): 1.07 µM |
| CCOC(=O)C1(c2ccccc2)CCN(CCCNC(=O)C2=C(C)NC(C)=C(C(C)=O)C2c2ccc([N+](=O)[O-])cc2)CC1 (racemic) [Example 202, 5-Acetyl-1,4-dihydro-2,6-dimethyl-3-{N-[3-(4-ethoxycarbonyl-4-phenylpiperidin-1-yl)propyl]}carboxamido-4-(4-nitrophenyl)pyridine] | 89 to 90 | 263 | 2.14 | 4.47 | – | – | Ki (α2B receptor; [3]): 0.912 µM |
| CC1=C(C(N)=O)C(c2ccc([N+](=O)[O-])cc2)C(C(=O)NCCCN2CCC(c3ccccc3)(c3ccccc3)CC2)=C(C)N1 (single isomer, unassigned; (+)) [(+)-2] | – | – | – | – | 6.40 | – | pKi alpha-1 1a ([1]; [3H]prazosin, cloned human receptor in LM(tk-) cell membranes, SEM and n in lines below): 6.40; pKi Ca (L-type calcium channel; SEM and n in lines below): 4.11 |
| COC(=O)C1=C(C)NC(C)=C(C(=O)NCCCN2CCC(c3ccccc3)(c3ccccc3)CC2)C1c1ccc([N+](=O)[O-])cc1 (racemic) [(±)-93, hydrochloride hydrate] | – | – | – | – | – | – | pKi (human prostatic tissue): 7.28 ± 0.4; Ki (canine prostate): 7.6 nmol/kg |
| CNC(=O)C1=C(C)NC(C)=C(C(=O)NCCCN2CCC(c3ccccc3)CC2)C1c1ccc([N+](=O)[O-])cc1 (centres unmarked) [Example 56, 1,4-Dihydro-2,6-dimethyl-5-(N-methyl) carboxamido-4-(4-nitrophenyl)-3-{N-[3-(4-phenylpiperidin-1-yl)propyl]}carboxamidopyridine hydrochloride hemihydrate] | – | – | – | – | – | 6.46 | Ki (α2B receptor; LM(tk-) cell line L-NGC-α2B, SEM and n in lines below, read-out: pKi alpha-2 2b (converted)): 0.129 µM; Ki (α2C receptor; LM(tk-) cell line L-α2C, SEM and n in lines below, read-out: pKi alpha-2 2c (converted)): 0.186 µM; Ki (α2A receptor; LM(tk-) cell line L-α2A, SEM and n in lines below, read-out: pKi alpha-2 2a (converted)): 0.269 µM |
| CC1=C(C(N)=O)C(c2ccc([N+](=O)[O-])cc2)C(C(=O)NCCCN2CCC(c3ccccc3)(c3ccccc3)CC2)=C(C)N1 (racemic) [(±)-2] | – | – | – | – | 6.38 | 200 | pKi alpha-1 1a [1]: 6.22 |
| CC1=C(C(N)=O)C(c2ccc([N+](=O)[O-])cc2)C(C(=O)NCCCN2CCC(c3ccccc3)(c3ccccc3)CC2)=C(C)N1 (single isomer, unassigned; (-)) [(−)-2] | – | – | – | – | 6.56 | 1820 | pKi alpha-1 1a [1]: 6.46 |
| COC(=O)C1(c2ccccc2)CCN(CCCNC(=O)C2=C(C)NC(C)=C(C(C)=O)C2c2ccc([N+](=O)[O-])cc2)CC1 (centres unmarked) [Example 201, 5-Acetyl-1,4-dihydro-2,6-dimethyl-3-{N-[3-(4-methoxycarbonyl-4-phenylpiperidin-1-yl)propyl]}carboxamido-4-(4-nitrophenyl)pyridine] | 94 to 95 | 67.6 | 3.24 | 4.47 | – | – | – |
